Measurements from article PMC11255867 (Protein Science : A Publication of the Protein Society, 2024).

Target: T1, Gaussia luciferase (GLuc) (Gaussia princeps (in: crustaceans), UniProt Q9BLZ2)
T1 sequence (Q9BLZ2 18-185): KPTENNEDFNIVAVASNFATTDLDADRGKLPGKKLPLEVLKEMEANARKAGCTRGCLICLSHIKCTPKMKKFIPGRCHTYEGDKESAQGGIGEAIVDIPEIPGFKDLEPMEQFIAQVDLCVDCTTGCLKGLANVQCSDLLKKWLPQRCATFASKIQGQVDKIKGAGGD
Assay: SDS-PAGE adduct formation
Type: biochemical
Settings: suicide inhibitor, covalent; oxidized without light; 20-fold molar excess, up to 24 h; 50 mM Tris-HCl pH 8.0

## O=c1c(Cc2ccco2)nc2c(Cc3ccccc3)[nH]c(-c3ccccc3)cn1-2 [furimazine]
  SDS-PAGE adduct formation; loss of luminescence with coelenterazine: FRZ is a suicide inhibitor of GLuc as it does not produce light with GLuc
